Data taken from US6353009B1, “Method for the treatment and prevention of hyperuricemia” (Sankyo Company, Limited, priority 1997, dated 2002).
“And” between values parts separate entries of the source, which are not always exact repeats. Equal entries are not always repeated.

Columns and labels:
[1] = system: uric acid; settings: clinical examination values, Rinsho Iyaku 9, Suppl.3, 14 (1993), cited from earlier work
[2] = system: blood uric acid; assay: Improvement in hyperuricemia: blood uric acid level in patients given troglitazone; assay type: in vivo, human
Description: The level of uric acid in the blood of a patient may be measured in a conventional manner. Specifically, blood is collected before and after the administration, for a predetermined period, of a medicament to a patient suffering from hyperuricemia and then the blood uric acid level is measured, for example, by the uricase catalase method [Kageyama: Clin. Chim. Acta., 31, 421-426 (1971)]. A measuring kit employing the above method is commercially available (“Uricolor 400”, trade name; product of Ono Pharmaceutical Co., Ltd.)
4 adult human patients who had suffered from diabetes and hyperuricemia and whose blood uric acid level was not less than 7.0 mg/dl, were administered orally 200 mg of troglitazone twice a day (in the morning and in the evening). This administration was continued for 4 weeks. Both after and before administration, blood was collected and the blood uric acid level was measured.

[3] = system: ddY mice (male); assay type: in vivo; settings: 300 mg/kg orally, three male ddY mice, observed for 5 days
Description: The acute toxicity of troglitazone was measured in a conventional manner. Specifically, 300 mg/kg of troglitazone was administered orally to three ddY mice (male), which were then observed for 5 days.

Structure (SMILES): Cc1c(C)c2c(c(C)c1O)CCC(C)(COc1ccc(CC3SC(=O)NC3=O)cc1)O2 (stereo not drawn) [troglitazone, 5-[4-(6-hydroxy-2,5,7,8-tetramethylchroman-2-ylmethoxy)benzyl]thiazolidine-2,4-dione]
- uric acid level before administration ([1]; baseline): 4.7±1.7
- uric acid level after administration [1]: 4.4±1.4
- Blood uric acid level, Week 4 ([2]; adult human patients with diabetes and hyperuricemia, 200 mg orally twice a day for 4 weeks): 5.2 mg/dL and 5.3 mg/dL and 5.6 mg/dL
- Blood uric acid level, Week 0 ([2]; adult human patients with diabetes and hyperuricemia, before administration (baseline)): 7.2 mg/dL and 7.6 mg/dL and 7.9 mg/dL
- blood uric acid level after administration (summary of the Table) ([2]; patients with blood uric acid 7.0 mg/dl or greater, 200 mg orally twice a day, 4 weeks, normal range): ≤ 6.0 mg/dL
- survival (acute toxicity) [3]: All of them survived
